According to patent US20250099491A1, “PREVENTION OR TREATMENT OF CARDIOVASCULAR DISEASES WITH HIGH PENETRATION PRODRUGS OF ASPIRIN AND OTHER NSAIDS” (Techfields Inc., priority 2022, published 2025):

Tested on: patients with ischemic strokes
Experiment: Phase 2 clinical study of spray in patients with ischemic strokes
Type: in vivo, human
Conditions: for LCCA (far-wall): Maximal IMT of left common carotid artery / LCCA (near-wall): Maximal IMT of left common carotid artery / LICA (far-wall): Maximal IMT of left internal carotid artery / LICA (near-wall): Maximal IMT of left internal carotid artery / RCCA (far-wall): Maximal IMT of right common carotid artery / RCCA (near-wall): Maximal IMT of right common carotid artery / RICA (far-wall): Maximal IMT of right internal carotid artery / RICA (near-wall): Maximal IMT of right internal carotid artery: ultrasonography
Experimental: Each patient enrolled in Group A was administered the investigational drug in a double-blind manner for 16 weeks starting between 3 and 60 days after the onset of stroke symptoms (Day 1 of the study). The patients and/or their caregivers were instructed how to apply the investigational drug accurately so that patients or their caregivers would administer 20 sprays/dose of either the investigational drug or placebo twice daily (approximately every 12 hours) for a total daily dose of 280 mg of investigational drug. The 20 sprays of investigational drug were administered as follows: 4 sprays around the neck, 2 sprays to the left shoulder, 2 sprays to the right shoulder, 6 sprays to the chest, 3 sprays to the left leg, and 3 sprays to the right leg. Each spray was sprayed on a different area of the skin to reach maximum absorption. The patient would wait for at least 5 minutes to dress after the last spray so that the skin became completely dry.
Patients were asked to return to the study site at Weeks 4, 8, 12, and 16 for efficacy and safety assessments. After the Week 16 assessments had been performed, patients would start the open-label period of the study the next day and receive active treatment in an open-label manner through the end of the study (EOS) at Week 32. That is, patients who were receiving active treatment would continue to receive active treatment, and patients who were receiving placebo would switch to active treatment for the remaining 16 weeks of the study. Patients would receive only 1 dose of investigational drug on the Week 16 visit day. Patients would return to the study site at Week 24 and Week 32 (EOS) for efficacy and safety assessments. An Early Termination visit would occur if the patient was discontinued from the study prematurely. Patients would have a follow-up visit approximately 14 days after the Early Termination visit or the Week 32 (EOS) visit.
The spray bottle deposits […] of spray solution and 7 mg 2-(diethylamino)ethyl acetoxybenzoate free base per spray on the skin. Subjects were to apply each spray to a different skin area around the neck, chest, legs and arms based on the randomized dose level assigned.
The treatment was administered twice daily (approximately every 12 hours) starting on Day 1 of the study through the Week 16 visit. Each spray was sprayed on a different area of the skin to reach maximum absorption.
Group A administered the 20 sprays of investigational drug as follows: 4 sprays around the neck, 2 sprays to the left shoulder, 2 sprays to the right shoulder, 6 sprays to the chest, 3 sprays to the left leg, and 3 sprays to the right leg twice daily for a total of 40 sprays (280 mg)/day. Each spray was sprayed on a different area of the skin to reach maximum absorption.
Group B administered the investigational drug as follows: 2 sprays to the front of the neck, 1 spray to the left side of the neck, 1 spray to the right side of the neck, 6 sprays to the chest close to the neck twice daily for a total of 20 sprays (140 mg)/day. Each spray was sprayed on a different area of the skin to reach maximum absorption.
Group C administered the investigational drug as follows: 1 spray to the front of the neck, 1 spray to the left side of the neck, 1 spray to the right side of the neck, 2 sprays to the chest twice daily for a total of 10 sprays (70 mg/day). Each spray was sprayed on a different area of the skin to reach maximum absorption.
The primary efficacy endpoint is the mRS score at Week 16 dichotomized as ‘success’ (0 to 2) or failure (>2) for all randomized patients at Week 16.
The mRS score was assessed at screening; Day 1 (baseline); Weeks 4, 8, 12, 16, 24, and 32; Early Termination Visit (if applicable) and Follow-Up Visit.
The mRS score measures the patient's functional level of activity and is dichotomized as a favorable outcome (score=0-2) versus unfavorable (score […]). […]

[1] = 5 Sprays (35 mg/dose bid), Baseline
[2] = 5 Sprays (35 mg/dose bid), Week 4
[3] = 5 Sprays (35 mg/dose bid), Week 8
[4] = 5 Sprays (35 mg/dose bid), Week 16
[5] = 5 Sprays (35 mg/dose bid), Week 24
[6] = 5 Sprays (35 mg/dose bid), Week 32
[7] = 5 Sprays (35 mg/dose bid), baseline
[8] = 10 Sprays (70 mg/dose bid), Baseline
[9] = 10 Sprays (70 mg/dose bid), Week 4
[10] = 10 Sprays (70 mg/dose bid), Week 8
[11] = 10 Sprays (70 mg/dose bid), Week 16

For `CCN(CC)CCOC(=O)c1ccccc1OC(C)=O.Cl` [Compound-1], the safety and tolerability (35 mg, 70 mg, and 140 mg BID, topical spray) was “safe and were generally well tolerated”, the “LCCA (far-wall): Maximal IMT of left common carotid artery” value (from here on “LCCA (far-wall): Maximal IMT”) [1] was 6.2 ± 1.6 mm and the “LCCA (near-wall): Maximal IMT of left common carotid artery” value (shortened to “LCCA (near-wall): Maximal IMT”) [1] was 7.3 ± 2.0 mm. For the same compound, the “LICA (far-wall): Maximal IMT of left internal carotid artery” value (“LICA (far-wall): Maximal IMT” for short) [1] was 5.3 ± 1.3 mm, the “LICA (near-wall): Maximal IMT of left internal carotid artery” value (shortened to “LICA (near-wall): Maximal IMT”) [1] was 6.3 ± 2.1 mm and the “RCCA (far-wall): Maximal IMT of right common carotid artery” value (“RCCA (far-wall): Maximal IMT” for short) [1] was 7.1 ± 2.2 mm. For the same compound, the “RCCA (near-wall): Maximal IMT of right common carotid artery” value (shortened to “RCCA (near-wall): Maximal IMT”) [1] was 6.9 ± 2.1 mm, the “RICA (far-wall): Maximal IMT of right internal carotid artery” value (“RICA (far-wall): Maximal IMT” for short) [1] was 4.1 ± 1.4 mm and the “RICA (near-wall): Maximal IMT of right internal carotid artery” value (shortened to “RICA (near-wall): Maximal IMT”) [1] was 4.7 ± 1.5 mm. For the same compound, the “Modified Rankin Scale Score (mRS)” value [2] was 3.1 ± 0.5, the “National Institute of Health Stroke Scale” value (shortened to “National Institute”) [2] was 5.5 ± 1.7 and the “Modified Rankin Scale Score (mRS)” value [3] was 2.9 ± 0.3. The “National Institute” value [3] was 5.3 ± 1.5, the “Modified Rankin Scale Score (mRS)” value [4] was 2.7 ± 0.5 and the “National Institute” value [4] was 4.1 ± 1.0. For the same compound, the “LCCA (far-wall): Maximal IMT” value [4] was 2.7 ± 1.4 mm, the “LCCA (near-wall): Maximal IMT” value [4] was 2.3 ± 1.3 mm and the “LICA (far-wall): Maximal IMT” value [4] was 1.5 ± 1.1 mm. For the same compound, the “LICA (near-wall): Maximal IMT” value [4] was 1.6 ± 1.3 mm, the “RCCA (far-wall): Maximal IMT” value [4] was 2.5 ± 1.1 mm and the “RCCA (near-wall): Maximal IMT” value [4] was 2.1 ± 0.9 mm. The “RICA (far-wall): Maximal IMT” value [4] was 1.6 ± 0.9 mm, the “RICA (near-wall): Maximal IMT” value [4] was 1.5 ± 1.2 mm and the “Modified Rankin Scale Score (mRS)” value [5] was 2.5 ± 0.5. The “National Institute” value [5] was 3.4 ± 0.8, the “Modified Rankin Scale Score (mRS)” value [6] was 2.4 ± 0.5 and the “National Institute” value [6] was 2.9 ± 0.6. The “LCCA (far-wall): Maximal IMT” value [6] was 2.5 ± 0.7 mm, the “LCCA (near-wall): Maximal IMT” value [6] was 2.1 ± 0.7 mm and the “LICA (far-wall): Maximal IMT” value [6] was 1.3 ± 0.7 mm. For the same compound, the “LICA (near-wall): Maximal IMT” value [6] was 1.2 ± 1.0 mm, the “RCCA (far-wall): Maximal IMT” value [6] was 2.6 ± 0.9 mm and the “RCCA (near-wall): Maximal IMT” value [6] was 2.3 ± 0.8 mm. For the same compound, the “RICA (far-wall): Maximal IMT” value [6] was 1.1 ± 0.7 mm, the “RICA (near-wall): Maximal IMT” value [6] was 1.2 ± 0.6 mm and the “Modified Rankin Scale Score (mRS)” value [7] was 3.5 ± 0.5. The “National Institute” value [7] was 6.0 ± 2.2, the “LCCA (far-wall): Maximal IMT” value [8] was 7.1 ± 1.7 mm and the “LCCA (near-wall): Maximal IMT” value [8] was 7.0 ± 1.5 mm. The “LICA (far-wall): Maximal IMT” value [8] was 5.8 ± 1.5 mm, the “LICA (near-wall): Maximal IMT” value [8] was 6.1 ± 1.3 mm and the “RCCA (far-wall): Maximal IMT” value [8] was 7.9 ± 2.1 mm. For the same compound, the “RCCA (near-wall): Maximal IMT” value [8] was 7.2 ± 1.7 mm, the “RICA (far-wall): Maximal IMT” value [8] was 4.3 ± 1.5 mm and the “RICA (near-wall): Maximal IMT” value [8] was 5.1 ± 1.2 mm. For the same compound, the “Modified Rankin Scale Score (mRS)” value [9] was 2.5 ± 0.5, the “National Institute” value [9] was 4.9 ± 1.5 and the “Modified Rankin Scale Score (mRS)” value [10] was 2.0 ± 0.5. The “National Institute” value [10] was 3.7 ± 1.1, the “Modified Rankin Scale Score (mRS)” value [11] was 1.6 ± 0.5 and the “National Institute” value [11] was 2.3 ± 0.8. For the same compound, the “LCCA (far-wall): Maximal IMT” value [11] was 1.8 ± 0.7 mm, the “LCCA (near-wall): Maximal IMT” value [11] was 1.3 ± 0.7 mm and the “LICA (far-wall): Maximal IMT” value [11] was 0.7 ± 0.3 mm. For the same compound, the “LICA (near-wall): Maximal IMT” value [11] was 0.9 ± 0.5 mm, the “RCCA (far-wall): Maximal IMT” value [11] was 1.5 ± 0.6 mm and the “RCCA (near-wall): Maximal IMT” value [11] was 1.6 ± 0.8 mm. The “RICA (far-wall): Maximal IMT” value [11] was 0.8 ± 0.3 mm.
